≈ marks a conversion by molar mass, not a printed value. Read-outs that look alike come from different tables or passages of the source.
How the values were obtained:
pro MMP-9 protein = assay: Inhibitory activity against proMMP-9 protein production (TNF α-stimulated mouse peritoneal exudate cells, ELISA); format: cell-based, C57BL/6J mice
Experimental: (§1) To 7- to 9-week male C57BL/6J mice (purchased from CLEA Japan, Inc. or Japan SLC, Inc.), Zymosan A (SIGMA) derived from budding yeasts which is adjusted to be 1 mg/ml in a phosphate buffer solution (PBS, 10010-49, Invitrogen) was administered intraperitoneally at 1 ml per mouse to induce peritonitis. Three days later, filter-sterilized cell recovery buffer (2 mM EDTA, 0.5% bovine serum albumin, PBS, pH 7.4) was administered intraperitoneally at 5 ml per mouse to recover peritoneal exudata cells. The cells went through a cell strainer (70 μm nylon, FALCON) and were then washed twice with a Hanks solution (Invitrogen). The cells were suspended in 10% fetal calf serum-containing Dulbecco's modified Eagle's culture medium (Invitrogen). The suspension was seeded on a plate with 48 wells, after 6 hours, the culture medium was completely exchanged. After culturing for another 18 hours, test compounds were added at 0.02 to 20 μM of the final concentration. After 1 hour from the addition of the compounds, a tumor necrosis factor (TNF) α (R & D Systems) was added at 25 ng/ml of the final concentration, and 24 hours later, the culture supernatant was collected. The amount of pro MMP-9 protein in the supernatant was quantified by an enzyme-linked immunosorbent assay (ELISA) (R & D Systems), IC50 values of the test compounds on the increased amount by TNF α stimuli, were calculated by ORIGIN analysis software (trade name: OriginLab). In addition, minimal inhibitory concentration (MIC) of each test compounds (measured bacterium: Staphylococcus aureus ATCC29213) was measured. As a comparative agent […] A (clarithromycin) was used.

[1] = tested on: Staphylococcus aureus ATCC29213; assay: Minimal inhibitory concentration (MIC); format: cell-based
Experimental: as §1

[2] = relative activity when the value of Comparative Agent 1 (IC50 = 10.04 ± 4.11 μM) is 10, on the increase of pro MMP-9 by TNF α 25 ng/ml, 24 hours, read-out: IC50 (μM)*

SMILES | IC50 (pro MMP-9 protein; [2]) [µM] | MIC [1] [µg/mL] | IC50 (pro MMP-9 protein; actual value of Comparative Agent 1 (table footnote), not normalised, read-out: IC50) [µM]
CC[C@H]1OC(=O)[C@H](C)[C@@H](O[C@H]2C[C@@](C)(OC)[C@@H](O)[C@H](C)O2)[C@H](C)[C@@H](O[C@@H]2O[C@H](C)C[C@H](N(C)C)[C@H]2OC)[C@@](C)(OC)C[C@@H](C)[C@H](N)[C@H](C)[C@@H](O)[C@]1(C)O [Compound T of Example 142, 9-deoxo-9-(S)-amino-6,2′-di-O-methylerythromycin A] | 8.88 | > 128 | –
CC[C@H]1OC(=O)[C@H](C)[C@@H](O[C@H]2C[C@@](C)(OC)[C@@H](OC(C)=O)[C@H](C)O2)[C@H](C)[C@@H](O[C@@H]2O[C@H](C)C[C@@H](N3CCOCC3)[C@@H]2N(C)CCN(C)C)[C@@](C)(OC)C[C@@H](C)C(=O)[C@H](C)[C@@H](O)[C@]1(C)O [Example 215] | 1.21 | > 128 | –
CC[C@H]1OC(=O)[C@H](C)[C@@H](O[C@H]2C[C@@](C)(OC)[C@@H](OC(C)=O)[C@H](C)O2)[C@H](C)[C@@H](O[C@@H]2O[C@H](C)C[C@@H](N3CCCC(O)C3)[C@@H]2N(C)C)[C@@](C)(OC)C[C@@H](C)C(=O)[C@H](C)[C@@H](O)[C@]1(C)O (mixture of isomers) [Example 196, 4″-O-acetyl-3′-dedimethylamino-2′-deoxy-2′-dimethylamino-3-((±)-3-hydroxypiperidin-1-yl)-6-O-methylerythromycin A] | 2.51 | > 128 | –
CC[C@H]1OC(=O)[C@H](C)[C@@H](O[C@H]2C[C@@](C)(OC)[C@@H](OC(C)=O)[C@H](C)O2)[C@H](C)[C@@H](O[C@@H]2O[C@H](C)C[C@@H](N(C)CCCc3ccncc3)[C@@H]2N(C)C)[C@@](C)(OC)C[C@@H](C)C(=O)[C@H](C)[C@@H](O)[C@]1(C)O [Example 162, 4″-O-acetyl-3′-N-demethyl-2′-deoxy-2′-dimethylamino-3′-N-(3-(4-pyridyl)propyl)-6-O-methylerythromycin A] | < 1.5 | > 128 | –
CC[C@H]1OC(=O)[C@H](C)[C@@H](O[C@H]2C[C@@](C)(OC)[C@@H](OC(C)=O)[C@H](C)O2)[C@H](C)[C@@H](O[C@@H]2O[C@H](C)C[C@H](N(C)C)[C@H]2OCCCN(C)C)[C@@](C)(OC)C[C@@H](C)C(=O)[C@H](C)[C@@H](O)[C@]1(C)O [Example 116, 4″-O-acetyl-2′-O-(3-dimethylaminopropyl)-6-O-methylerythromycin A] | 2.79 | > 128 | –
CC[C@H]1OC(=O)[C@H](C)[C@@H](O[C@H]2C[C@@](C)(OC)[C@@H](O)[C@H](C)O2)[C@H](C)[C@@H](O[C@@H]2O[C@H](C)C[C@@H](N(C)CCc3ccccc3)[C@@H]2N(C)C)[C@@](C)(OC)C[C@@H](C)C(=O)[C@H](C)[C@@H](O)[C@]1(C)O [Example 194, 3′-N-demethyl-2′-deoxy-2′-dimethylamino-3′-N-(2-phenethyl)-6-O-methylerythromycin A] | 1.23 | > 128 | –
CC[C@H]1OC(=O)[C@H](C)[C@@H](O[C@H]2C[C@@H](C)[C@H](O)[C@](C)(OC)O2)[C@H](C)[C@@H](O[C@@H]2O[C@H](C)C[C@H](N(C)CCN(C)C)[C@H]2OC)[C@@](C)(OC)C[C@@H](C)C(=O)[C@H](C)[C@@H](O)[C@]1(C)O [Example 104, 3′-N-demethyl-3′-N-(2-dimethylaminoethyl)-6,2′-di-O-methylerythromycin A] | 5 | > 128 | –
CC[C@H]1OC(=O)[C@H](C)[C@@H](O[C@H]2C[C@@](C)(OC)[C@@H](OC(C)=O)[C@H](C)O2)[C@H](C)[C@@H](O[C@@H]2O[C@H](C)C[C@@H](N(C)Cc3ccccn3)[C@@H]2N(C)C)[C@@](C)(OC)C[C@@H](C)C(=O)[C@H](C)[C@@H](O)[C@]1(C)O [Example 191, 4″-O-acetyl-3′-N-demethyl-2′-deoxy-2′-dimethylamino-3′-N-(2-pyridylmethyl)-6-O-methylerythromycin A] | 1.42 | 128 (≈ 143 µM) | –
CC[C@H]1OC(=O)[C@H](C)[C@@H](O[C@H]2C[C@@](C)(OC)[C@@H](OC(C)=O)[C@H](C)O2)[C@H](C)[C@@H](O[C@@H]2O[C@H](C)C[C@H](N(C)C)[C@H]2OC)[C@@](C)(OC)C[C@@H](C)[C@H](OC(=O)CCN(C)C)[C@H](C)[C@@H](O)[C@]1(C)O [Compound V of Example 147, 4″-O-acetyl-9-deoxo-9-(S)-(3-dimethylaminopropionyloxy)-6,2′-di-O-methylerythromycin A] | 2.61 | > 128 | –
CC[C@H]1OC(=O)[C@H](C)[C@@H](O[C@H]2C[C@@](C)(OC)[C@@H](O)[C@H](C)O2)[C@H](C)[C@@H](O[C@@H]2O[C@H](C)C[C@H](N3CCOCC3)[C@H]2OC)[C@@](C)(OC)C[C@@H](C)C(=O)[C@H](C)[C@@H](O)[C@]1(C)O [Example 139, 3′-N-dedimethylamino-3-(4-morpholino)-6,2′-di-O-methylerythromycin A] | 5.51 | > 128 | –
CC[C@H]1OC(=O)[C@H](C)[C@@H](O[C@H]2C[C@@](C)(OC)[C@@H](O)[C@H](C)O2)[C@H](C)[C@@H](O[C@@H]2O[C@H](C)C[C@H](N(C)CCCO)[C@H]2OC)[C@@](C)(OC)C[C@@H](C)C(=O)[C@H](C)[C@@H](O)[C@]1(C)O [Example 132, 3′-N-demethyl-3′-N-(3-hydroxypropyl)-6,2′-di-O-methylerythromycin A] | 2.52 | > 128 | –
CC[C@H]1OC(=O)[C@H](C)[C@@H](O[C@H]2C[C@@](C)(OC)[C@@H](O)[C@H](C)O2)[C@H](C)[C@@H](O[C@@H]2O[C@H](C)C[C@@H](N3CCN(CCN(C)C)CC3)[C@@H]2N(C)C)[C@@](C)(OC)C[C@@H](C)C(=O)[C@H](C)[C@@H](O)[C@]1(C)O [Example 169, 3′-dedimethylamino-2′-deoxy-2′-dimethylamino-3′-(4-(2-dimethylaminoethyl)piperazin-1-yl)-6-O-methylerythromycin A] | 2.89 | > 128 | –
CC[C@H]1OC(=O)[C@H](C)[C@@H](O[C@H]2C[C@@](C)(OC)[C@@H](O)[C@H](C)O2)[C@H](C)[C@@H](O[C@@H]2O[C@H](C)C[C@@H](N3CCOCC3)[C@@H]2N(C)C)[C@@](C)(OC)C[C@@H](C)C(=O)[C@H](C)[C@@H](O)[C@]1(C)O [Example 178, 3′-dedimethylamino-2′-deoxy-2′-dimethylamino-3′-(4-morpholino)-6-O-methylerythromycin A] | 3.1 | > 128 | –
CC[C@H]1OC(=O)[C@H](C)[C@@H](O[C@H]2C[C@@](C)(OC)[C@@H](O)[C@H](C)O2)[C@H](C)[C@@H](O[C@@H]2O[C@H](C)C[C@H](N)[C@H]2OC)[C@@](C)(OC)C[C@@H](C)C(=O)[C@H](C)[C@@H](O)[C@]1(C)O [Example 138, 3′-N-dedimethyl-6,2′-di-O-methylerythromycin A] | 3.95 | > 128 | –
CC[C@H]1OC(=O)[C@H](C)[C@@H](O[C@H]2C[C@@](C)(OC)[C@@H](O)[C@H](C)O2)[C@H](C)[C@@H](O[C@@H]2O[C@H](C)C[C@H](N(C)C)[C@H]2O)[C@](C)(OC)C[C@@H](C)C(=O)[C@H](C)[C@@H](O)[C@]1(C)O [Comparative Agent 1, 6-O-methylerythromycin A, reference compound] | 10 | 0.25 (≈ 0.334 µM) | 10
CC[C@H]1OC(=O)[C@H](C)[C@@H](O[C@H]2C[C@@](C)(OC)[C@@H](OC(C)=O)[C@H](C)O2)[C@H](C)[C@@H](O[C@@H]2O[C@H](C)C[C@H](N(C)C)[C@H]2OC)[C@@](C)(OC)C[C@@H](C)[C@H](OC(=O)CCN(C)C)[C@H](C)[C@@H](OC(=O)CCN(C)C)[C@]1(C)O [Compound W of Example 147, 4″-O-acetyl-9-deoxo-9-(S)-(3-dimethylaminopropionyloxy)-11-O-(3-dimethylaminopropionyl)-6,2′-di-O-methylerythromycin A] | 6.56 | > 128 | –
CC[C@H]1OC(=O)[C@H](C)[C@@H](O[C@H]2C[C@@](C)(OC)[C@@H](O)[C@H](C)O2)[C@H](C)[C@@H](O[C@@H]2O[C@H](C)C[C@H](N(C)C)[C@H]2OC)[C@@](C)(OC)C[C@@H](C)C(=O)[C@H](C)[C@@H](O)[C@]1(C)O [Example 31, 6,2′-di-O-methylerythromycin A] | 4.08 | > 128 | –
CC[C@H]1OC(=O)[C@H](C)[C@@H](O[C@H]2C[C@@](C)(OC)[C@@H](O)[C@H](C)O2)[C@H](C)[C@@H](O[C@@H]2O[C@H](C)C[C@H](N(C)C)[C@H]2OC)[C@@](C)(OC)C[C@@H](C)[C@H](O)[C@H](C)[C@@H](O)[C@]1(C)O [Example 141, 9-deoxo-9-(S)-hydroxy-6,2′-di-O-methylerythromycin A] | 2.18 | > 128 | –
CC[C@H]1OC(=O)[C@H](C)[C@@H](OC(C)=O)[C@H](C)[C@@H](O[C@@H]2O[C@H](C)C[C@@H](N3CCOCC3)[C@@H]2N(C)C)[C@@](C)(OC)C[C@@H](C)C(=O)[C@H](C)[C@@H](O)[C@]1(C)O [Example 203, 3-O-acetyl-5-O— (3′-dedimethylamino-2′-deoxy-2′-dimethylamino-3′-(4-morpholino)desosaminyl)-6-O-methylerythronolide A] | 5.03 | > 128 | –
